# Measurements published in patent publication US20170276611A1, “CHALCOGENOPYRYLIUM DYES, COMPOSITIONS COMPRISING SAME, COMPOSITE NANOPARTICLES COMPRISING SAME, AND METHODS OF MAKING AND USING THE SAME” (The Research Foundation for The State University of New York, priority 2014, published 2017).
# Key:
# Format in all cases: physicochemical
# [1] = UV/VIS-near-IR absorption of the dyes; details: Table 2, Example 2 dyes
# Method: Synthetic Methods. All reactions were performed open to air unless otherwise noted. Concentration in vacuo was performed on a rotary evaporator. NMR spectra were recorded at 300 or 500 MHz for ^1H and at 75.5 MHz for ^13C with residual solvent signal as internal standard. UV/VIS-near-IR spectra were recorded in quartz cuvettes with a 1-cm path length. Melting points were determined with a capillary melting point apparatus and are uncorrected. […] Pyranones 16b-16d are known compounds (J. Heterocycl. Chem. 1999, 36, 707-717). The synthesis of thiopyranone 16a and 4-methylpyrylium salt 15c is shown in Scheme 2. 4-Methylpyrylium salts 15a, 15d, and 15e have been reported previously in the literature (J. Org. Chem. 1982, 47, 5235-5239; Organometallics 1988, 7, 1131-1147; Dyes Pigm. 2000, 45, 1-7).
# [2] = Effect of counterion on colloidal stability of SERRS-nanoprobes; details: 10 μM dye
# Method: Effect of counterion on colloidal stability and SERRS-signal. […] Since SERRS is highly dependent on these factors, we evaluated the effect of the counterion (Z^−) on the SERRS spectrum, intensity, and colloidal stability of the pyrylium-based SERRS-nanoprobes. We compared chloride (Cl^−), bromide (Br^−), perchlorate (ClO4^−), and hexafluorophosphate (PF6^−) as counterions for chalcogenopyrylium dye 1a. The SERRS-nanoprobes were synthesized in the presence of equimolar amounts (10 μM) of CP dye 1a.Z^− (where Z^−═Cl^−, Br^−, ClO4^−, or PF6^−). The counterion introduces almost no difference in optical properties (e.g. absorption maxima, extinction coefficient). Furthermore, with the exception of the chloride counter-ion, the Raman shifts and intensity of 1a were minimally affected by the different counterions (FIG. 17 B). […] Since the PF6^− anion induced the least nanoparticle aggregation, it was used for further SERRS experiments.
# SERRS-nanoprobe characterization. […] The size and concentration of the SERRS-nanoprobes were determined on a Nanoparticle Tracking Analyzer (NTA; Malvern Instruments, Malvern, UK). Absorption spectra to determine possible nanoparticle aggregation (typically detectable at wavelengths >600 nm) were measured on an M1000Pro spectrophotometer (Tecan Systems Inc. San Jose, Calif.). […]
# [3] = Fluorescence of dyes incorporated in silica without gold nanoparticle; details: dye in silica without gold nanoparticle, excited at 785-nm, 50 μW/cm^2, 1.0 s
# Text: Comparison of CP-dye 3 with a cyanine-based SERRS-reporter. In order to assess the quality of our optimized nanoprobe, thiopyrylium dye 3 and commercially available IR792 (FIG. 19 A), which has been previously used to generate surface-enhanced resonance Raman scattering nanoprobes, were studied. […] It is interesting to note that a fluorescence background is minimal in the SERRS spectra of the CP- and cyanine-based SERRS-nanoprobes. Whereas fluorescence interference would not be expected from chalcogenopyrylium dyes containing heavy chalcogens that enhance intersystem crossing, fluorescence interference could be expected for the cyanine dye IR792. […] This is due to quenching effects near the surface of the nanoparticle.
compound,measurement,setting,value
"C(=Cc1cc(-c2ccccc2)[se+]c(-c2ccccc2)c1)C=C1C=C(c2ccccc2)[Se]C(c2ccccc2)=C1.F[P-](F)(F)(F)(F)F [Dye 1a, 4-(3-(2,6-diphenyl-4H-selenopyran-4-ylidene)prop-1-enyl)-2,6-diphenylselenopyrylium hexafluorophosphate]",Log (ε),[1],5.40
same,λmax (CH2Cl2),[1]; CH2Cl2,806 nm
same,colloidal stability of SERRS-nanoprobes,[2]; counterion Cl^−,strongly destabilized the gold colloids and caused aggregation
same,colloidal stability of SERRS-nanoprobes,[2]; counterion PF6^−,did not affect colloidal stability
CCCN1/C(=C\C=C2/CCCC(/C=C/C3=[N+](CCC)c4ccccc4C3(C)C)=C2Sc2ccccc2)C(C)(C)c2ccccc21 [IR792],fluorescence,[3],strong fluorescence
